Reference: paper PMC4992173, “Divergent synthesis and identification of the cellular targets of deoxyelephantopins” (Nature Communications, 2016)

Target: T1, PPARγ (Homo sapiens, UniProt P37231)
T1 sequence (P37231 1-505): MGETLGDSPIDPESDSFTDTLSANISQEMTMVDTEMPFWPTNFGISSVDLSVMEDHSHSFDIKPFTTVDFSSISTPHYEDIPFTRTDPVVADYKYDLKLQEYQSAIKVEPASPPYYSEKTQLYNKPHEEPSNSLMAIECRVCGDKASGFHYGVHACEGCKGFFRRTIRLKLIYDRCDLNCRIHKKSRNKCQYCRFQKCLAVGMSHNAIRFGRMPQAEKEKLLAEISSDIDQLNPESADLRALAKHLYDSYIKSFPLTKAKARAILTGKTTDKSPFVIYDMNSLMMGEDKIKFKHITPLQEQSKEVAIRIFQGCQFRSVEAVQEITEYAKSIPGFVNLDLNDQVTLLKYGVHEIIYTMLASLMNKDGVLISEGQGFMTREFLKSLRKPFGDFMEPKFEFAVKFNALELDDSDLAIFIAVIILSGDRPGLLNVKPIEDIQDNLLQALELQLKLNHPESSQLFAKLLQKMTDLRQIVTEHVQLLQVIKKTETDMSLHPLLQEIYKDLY
Assay: Detection of a covalent adduct on human PPARγ (LC-MS/MS)
Format: binding
Set-up: purchased Cayman Chemical
Details: 100 μM, 1 h, tryptic digest LC-MS/MS
Excerpt: Finally, we sought to understand the molecular basis for PPARγ binding by the synthetic analogues of deoxyelephantopin through identification of the precise covalently modified amino acid site. There is literature precedent for oxidized fatty acids containing an α,β-unsaturated ketone to form a covalent bond with a cysteine in the ligand-binding site of PPARγ[53]. More recently, synthetic ligands binding reversibly to a distinct site were identified. […] Bearing in mind that the structurally simplified, and thus less prone to MS/MS fragmentation, probe 23c binds PPARγ as efficiently as 24c (Supplementary Fig. 13), we treated the recombinant nuclear receptor with the former compound, digested the protein and analysed the resulting peptides by LC–MS/MS. […]
Recombinant human PPARγ (500 ng in 9 μl PBS) was treated with 100 μM of 23c (1 μl of 10 × stock in DMSO) or DMSO for 1 h. […] Samples were resuspended in 0.1% FA in water and analysed by LC–MS/MS. The theoretical mass of the 23c adduct was calculated and LC–MS/MS was run with an inclusion list containing m/z and charge of the expected peptides. MS data were analysed in MaxQuant with 23c (+256.1099 Da) and carbamidomethylation as variable modifications on cysteine. […]

Structure (SMILES): C#CCC[C@H](O)[C@H]1C(=C)C(=O)O[C@@H]1c1ccccc1 [23c]
- protein site covalently modified: Cys190
